Laboratory results from US20250009725A1, “PHARMACEUTICAL COMPOSITION HAVING EXCELLENT DISSOLUTION PROPERTIES” (DAIICHI SANKYO COMPANY, LIMITED, priority 2021, published 2025).
Where a name gives a salt, the structure may show the parent alone.

Assay: Solubility and dissolution of valemetostat tosylate under vigorous or slow agitation
Type: physicochemical
From the text: The object of the present invention is to provide a pharmaceutical composition in which valemetostat or a pharmaceutically acceptable salt thereof, particularly valemetostat tosylate, has excellent dissolution properties. […] Since the effect of vigorous agitation cannot be expected in vivo, a pharmaceutical composition having sufficient dissolution properties in vivo is needed.

Cc1cc(C)c(CNC(=O)c2cc(Cl)c3c(c2C)O[C@@](C)([C@H]2CC[C@H](N(C)C)CC2)O3)c(=O)[nH]1 [valemetostat tosylate, (2R)-7-chloro-2-[trans-4-(dimethylamino)cyclohexyl]-N-[(4,6-dimethyl-2-oxo-1,2-dihydropyridin-3-yl)methyl]-2,4-dimethyl-1,3-benzodioxol-5-carboxamide p-toluenesulfonate]
solubility (in words): sufficient solubility
